In PMC10067855, “Sialidases and fucosidases of Akkermansia muciniphila are crucial for growth on mucin and nutrient sharing with mucus-associated gut bacteria” (Nature Communications, 2023):

Experiments:
AmGH181 [1] = biological target: T1, AmGH181 (Akkermansia muciniphila, UniProt B2ULI1); parameters: gene Amuc_1547
T1 sequence (B2ULI1 23-595): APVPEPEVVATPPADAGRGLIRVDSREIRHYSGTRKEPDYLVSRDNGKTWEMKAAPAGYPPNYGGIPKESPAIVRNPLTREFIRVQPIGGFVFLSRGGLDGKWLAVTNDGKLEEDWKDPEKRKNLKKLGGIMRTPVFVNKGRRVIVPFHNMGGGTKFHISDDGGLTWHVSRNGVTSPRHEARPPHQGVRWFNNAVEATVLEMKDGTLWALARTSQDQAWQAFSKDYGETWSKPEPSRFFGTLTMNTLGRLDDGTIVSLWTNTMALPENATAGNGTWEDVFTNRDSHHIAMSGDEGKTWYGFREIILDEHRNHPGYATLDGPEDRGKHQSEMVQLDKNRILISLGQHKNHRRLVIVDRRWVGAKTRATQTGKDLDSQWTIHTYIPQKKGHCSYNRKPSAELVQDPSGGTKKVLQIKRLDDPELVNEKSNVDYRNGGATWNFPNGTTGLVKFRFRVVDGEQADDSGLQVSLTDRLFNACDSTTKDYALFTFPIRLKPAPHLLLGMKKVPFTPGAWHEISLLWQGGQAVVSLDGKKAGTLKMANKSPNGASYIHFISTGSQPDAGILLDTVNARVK

AmGH33A = biological target: T2, AmGH33A (Akkermansia muciniphila, UniProt B2UPI5); experiment: inhibition of 4MU-Neu5Ac hydrolysis, fluorescence; assay type: biochemical
T2 construct: gene Amuc_0625; mature peptide lacking the signal peptide
T2 sequence (B2UPI5 39-419): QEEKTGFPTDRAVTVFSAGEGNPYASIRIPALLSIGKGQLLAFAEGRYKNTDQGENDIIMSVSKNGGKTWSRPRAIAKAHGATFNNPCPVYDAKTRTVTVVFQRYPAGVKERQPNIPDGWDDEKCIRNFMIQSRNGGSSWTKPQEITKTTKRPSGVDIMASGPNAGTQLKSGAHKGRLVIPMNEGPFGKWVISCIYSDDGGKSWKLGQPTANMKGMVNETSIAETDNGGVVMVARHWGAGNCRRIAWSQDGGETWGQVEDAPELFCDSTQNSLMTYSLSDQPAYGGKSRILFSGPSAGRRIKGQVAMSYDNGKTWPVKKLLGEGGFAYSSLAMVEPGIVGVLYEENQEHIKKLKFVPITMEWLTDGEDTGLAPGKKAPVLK

AmGH33B = biological target: T3, AmGH33B (Akkermansia muciniphila, UniProt B2UN42); experiment: inhibition of 4MU-Neu5Ac hydrolysis, fluorescence; assay type: biochemical
T3 construct: gene Amuc_1835; mature peptide lacking the signal peptide
T3 sequence (B2UN42 19-674): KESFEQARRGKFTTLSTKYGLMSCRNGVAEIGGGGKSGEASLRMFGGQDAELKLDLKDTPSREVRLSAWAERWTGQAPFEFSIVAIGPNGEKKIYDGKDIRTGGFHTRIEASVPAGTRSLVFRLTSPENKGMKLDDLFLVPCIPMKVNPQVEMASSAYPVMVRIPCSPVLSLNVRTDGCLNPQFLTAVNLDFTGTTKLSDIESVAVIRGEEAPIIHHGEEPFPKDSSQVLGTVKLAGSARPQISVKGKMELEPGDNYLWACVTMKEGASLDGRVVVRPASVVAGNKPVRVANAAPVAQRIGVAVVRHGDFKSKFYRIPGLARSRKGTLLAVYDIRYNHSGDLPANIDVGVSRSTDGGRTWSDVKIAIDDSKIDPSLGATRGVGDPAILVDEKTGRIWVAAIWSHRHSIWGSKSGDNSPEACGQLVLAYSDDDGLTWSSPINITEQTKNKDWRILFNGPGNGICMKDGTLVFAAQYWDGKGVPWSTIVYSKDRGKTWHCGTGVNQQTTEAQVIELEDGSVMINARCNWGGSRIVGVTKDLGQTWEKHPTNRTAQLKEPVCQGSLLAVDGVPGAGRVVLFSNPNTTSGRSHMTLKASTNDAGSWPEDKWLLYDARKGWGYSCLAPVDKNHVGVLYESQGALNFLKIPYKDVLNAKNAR

AmGH181 [2] = biological target: T1, AmGH181; experiment: X-ray crystal structure; also inhibition of 4MU-Neu5Ac hydrolysis; assay type: biochemical; parameters: gene Amuc_1547; mature peptide lacking the signal peptide
Source text: X-ray crystal structure; also inhibition of 4MU-Neu5Ac hydrolysis on AmGH181 | three structures of AmGH181: in ligand free form, bound with the transition-state inhibitor DANA

SMILES: CC(=O)N[C@H]1C(O)O[C@H](CO)[C@H](O)[C@@H]1O[C@@H]1O[C@H](CO)[C@H](O)[C@H](O)[C@H]1O (stereo partly shown) [GNB, Galacto-N-biose]
- X-ray crystal structure (ternary with DANA) (AmGH181 [1]): bound to both the T-antigen disaccharide (GNB) and DANA, which provides a mimic for a transition state-like substrate complex

SMILES: CC(=O)N[C@H]1[C@H]([C@H](O)[C@H](O)CO)OC(C(=O)O)=C[C@@H]1O [DANA, N-Acetyl-2,3-dehydro-2-deoxyneuraminic acid]
- IC50 (AmGH33A): < 200 µM
- IC50 (AmGH33B): < 200 µM
- IC50 (AmGH181 [2]): < 200 µM
